Data on 2 compounds can be found in ChEMBL document CHEMBL3868615, “Decahydrobenzoquinolin-5-one sigma receptor ligands: Divergent development of both sigma 1 and sigma 2 receptor selective examples” (Bioorg Med Chem Lett, 2016).

Experiment [1] addresses 5-hydroxytryptamine receptor 1D (Homo sapiens, UniProt P28221). The experiment is described as follows: Displacement of [3H]5-CT from human 5-HT1D receptor expressed in HEK-T cells measured after 90 mins by microbeta scintillation counting method. It is filed as cell-based. On the technique in general: Loss of bound radioactivity is the signal in a displacement assay; it reports binding, not function.

A short description of experiment [2]: Displacement of [3H]DTG from sigma2 receptor in rat PC12 cells measured after 90 mins by microbeta scintillation counting method. It is filed as cell-based. To be noted: pc-12.
The target in experiment [3] is 5-hydroxytryptamine receptor 5A (Homo sapiens, UniProt P47898). The experiment is described as follows: Displacement of [3H]LSD from human 5-HT5A receptor expressed in Flp-In CHO cells measured after 90 mins by microbeta scintillation counting method. It is filed as cell-based.
In experiment [4] the target is 5-hydroxytryptamine receptor 2C (Homo sapiens) (UniProt P28335). As to conditions: HEK293, 10 uM.
The target of experiment [5] is T1, Mu-type opioid receptor (Homo sapiens, UniProt P35372). The experiment is described as follows: Displacement of [3H]DAMGO from human MOR expressed in HEK cells after 90 mins by microbeta scintillation counting method. It is filed as cell-based, HEK293.
Experiment [6] has as its target T2, 5-hydroxytryptamine receptor 2B (Homo sapiens, UniProt P41595). Description: Displacement of [3H]LSD from human 5-HT2B receptor expressed in HEK cells measured after 90 mins by microbeta scintillation counting method. It is filed as cell-based, HEK293.
Experiment [7] deals with Alpha-1B adrenergic receptor (Homo sapiens, UniProt P35368). The experiment is described as follows: Displacement of [3H]Prazosin from human Alpha1B receptor expressed in HEK-T cells measured after 90 mins by microbeta scintillation counting method. It is filed as cell-based.
In experiment [8] the target is Histamine H3 receptor (Homo sapiens, UniProt Q9Y5N1). To be noted: HEK293, 10 uM.
In experiment [9] the target is T3, 5-hydroxytryptamine receptor 1A (Homo sapiens, UniProt P08908).
T3 sequence (P08908 whole entry): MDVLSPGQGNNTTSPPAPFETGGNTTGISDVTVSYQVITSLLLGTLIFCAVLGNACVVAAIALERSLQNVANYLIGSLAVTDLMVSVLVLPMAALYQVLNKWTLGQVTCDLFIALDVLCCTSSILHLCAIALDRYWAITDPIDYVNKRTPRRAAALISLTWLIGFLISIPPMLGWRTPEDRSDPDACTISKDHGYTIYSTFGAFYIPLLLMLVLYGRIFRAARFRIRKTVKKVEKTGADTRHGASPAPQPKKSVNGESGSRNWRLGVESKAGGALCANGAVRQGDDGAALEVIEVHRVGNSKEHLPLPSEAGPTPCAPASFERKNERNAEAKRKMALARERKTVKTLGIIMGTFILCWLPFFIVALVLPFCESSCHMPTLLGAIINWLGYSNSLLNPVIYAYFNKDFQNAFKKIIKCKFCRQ
The experiment is described as follows: Displacement of [3H]Way100635 from human 5-HT1A receptor expressed in CHO cells measured after 90 mins by microbeta scintillation counting method. It is filed as cell-based.

The target in experiment [10] is D(3) dopamine receptor (Homo sapiens, UniProt P35462). Description: Displacement of [3H]N-methylspiperone from D3 receptor (unknown origin) expressed in HEK-T cells measured after 90 mins by microbeta scintillation counting method. Format: cell-based.
Experiment [11] addresses Muscarinic acetylcholine receptor M2 (Homo sapiens, UniProt P08172). Description: Binding affinity to human M2 receptor expressed in CHO cells measured after 90 mins by radioligand binding assay. It is filed as cell-based.
In experiment [12] the target is T2, 5-hydroxytryptamine receptor 2B. To be noted: HEK293, 10 uM.
The test system of experiment [13] is PC-12. As to conditions: Rattus norvegicus, 10 uM.
For experiment [14], the target named is Sodium-dependent dopamine transporter (Homo sapiens, UniProt Q01959). To be noted: HEK293, 10 uM.
Experiment [15] concerns the target Muscarinic acetylcholine receptor M5 (Homo sapiens) (UniProt P08912). The experiment is described as follows: Binding affinity to human M5 receptor expressed in CHO cells at 10 uM measured after 90 mins by radioligand binding assay relative to control. Format: cell-based.
In experiment [16] the target is Muscarinic acetylcholine receptor M3 (Homo sapiens, UniProt P20309). The experiment is described as follows: Binding affinity to human M3 receptor expressed in CHO cells at 10 uM measured after 90 mins by radioligand binding assay relative to control. It is filed as cell-based.
Experiment [17] concerns the target Alpha-2B adrenergic receptor (Homo sapiens) (UniProt P18089). To be noted: HEK-T, 10 uM.
Experiment [18] deals with PC-12. Description: Selectivity ratio of Ki for guinea pig sigma1 receptor to Ki for sigma2 receptor in rat PC12 cells. Format: cell-based.
Experiment [19] addresses Alpha-2C adrenergic receptor (Homo sapiens) (UniProt P18825). To be noted: MDCK, 10 uM.
For experiment [20], the target named is Kappa-type opioid receptor (Homo sapiens, UniProt P41145). To be noted: HEKT, 10 uM.
Experiment [21] addresses T1, Mu-type opioid receptor. To be noted: HEK293, 10 uM.
Experiment [22] deals with Alpha-2A adrenergic receptor (Homo sapiens) (UniProt P08913). To be noted: MDCK, 10 uM.

pKi: −log10 of the molar value.

T2 sequence (P41595 whole entry): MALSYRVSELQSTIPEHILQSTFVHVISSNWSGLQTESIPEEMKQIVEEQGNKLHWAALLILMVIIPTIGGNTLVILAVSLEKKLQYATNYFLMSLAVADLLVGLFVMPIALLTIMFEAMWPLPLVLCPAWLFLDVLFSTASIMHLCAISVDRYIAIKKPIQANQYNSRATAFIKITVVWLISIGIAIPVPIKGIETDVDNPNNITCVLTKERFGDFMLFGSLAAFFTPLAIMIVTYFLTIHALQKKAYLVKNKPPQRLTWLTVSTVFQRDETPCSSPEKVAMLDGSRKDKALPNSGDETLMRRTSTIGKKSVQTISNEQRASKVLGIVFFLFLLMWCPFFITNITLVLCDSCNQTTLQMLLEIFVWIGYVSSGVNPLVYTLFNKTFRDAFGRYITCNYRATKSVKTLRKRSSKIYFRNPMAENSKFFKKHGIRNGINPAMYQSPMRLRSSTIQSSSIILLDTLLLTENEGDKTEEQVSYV
T1 sequence (P35372 whole entry): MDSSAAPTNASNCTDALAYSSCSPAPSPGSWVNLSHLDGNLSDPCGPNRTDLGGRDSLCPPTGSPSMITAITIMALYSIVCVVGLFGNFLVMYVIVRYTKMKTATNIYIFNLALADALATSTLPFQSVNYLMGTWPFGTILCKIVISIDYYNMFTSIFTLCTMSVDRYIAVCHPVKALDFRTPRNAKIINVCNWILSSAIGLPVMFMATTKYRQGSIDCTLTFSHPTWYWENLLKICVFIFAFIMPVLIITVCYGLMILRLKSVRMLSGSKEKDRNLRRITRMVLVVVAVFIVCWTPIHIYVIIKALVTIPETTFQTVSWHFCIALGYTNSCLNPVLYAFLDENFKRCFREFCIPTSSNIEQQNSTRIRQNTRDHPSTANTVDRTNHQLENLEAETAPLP
Chain of 5-hydroxytryptamine receptor 5A (P47898 whole entry): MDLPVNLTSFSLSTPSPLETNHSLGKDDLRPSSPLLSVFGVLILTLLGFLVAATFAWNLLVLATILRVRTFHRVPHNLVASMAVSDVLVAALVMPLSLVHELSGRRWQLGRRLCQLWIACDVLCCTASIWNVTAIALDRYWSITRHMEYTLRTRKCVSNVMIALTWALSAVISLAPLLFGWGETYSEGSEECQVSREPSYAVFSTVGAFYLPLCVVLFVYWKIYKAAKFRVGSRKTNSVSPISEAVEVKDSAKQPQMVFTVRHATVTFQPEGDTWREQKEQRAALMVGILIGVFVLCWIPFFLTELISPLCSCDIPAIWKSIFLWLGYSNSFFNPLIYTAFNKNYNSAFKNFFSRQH
Chain of 5-hydroxytryptamine receptor 1D (P28221 whole entry): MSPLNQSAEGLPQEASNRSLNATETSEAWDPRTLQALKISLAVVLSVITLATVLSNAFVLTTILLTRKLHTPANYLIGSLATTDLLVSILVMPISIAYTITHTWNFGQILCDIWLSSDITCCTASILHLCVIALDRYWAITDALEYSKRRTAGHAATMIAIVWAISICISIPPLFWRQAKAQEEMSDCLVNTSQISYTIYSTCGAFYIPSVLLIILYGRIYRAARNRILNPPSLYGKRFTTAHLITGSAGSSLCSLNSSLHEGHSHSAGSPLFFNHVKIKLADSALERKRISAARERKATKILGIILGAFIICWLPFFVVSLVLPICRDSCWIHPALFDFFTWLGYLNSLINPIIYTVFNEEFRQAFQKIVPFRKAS
Chain of D(3) dopamine receptor (P35462 whole entry): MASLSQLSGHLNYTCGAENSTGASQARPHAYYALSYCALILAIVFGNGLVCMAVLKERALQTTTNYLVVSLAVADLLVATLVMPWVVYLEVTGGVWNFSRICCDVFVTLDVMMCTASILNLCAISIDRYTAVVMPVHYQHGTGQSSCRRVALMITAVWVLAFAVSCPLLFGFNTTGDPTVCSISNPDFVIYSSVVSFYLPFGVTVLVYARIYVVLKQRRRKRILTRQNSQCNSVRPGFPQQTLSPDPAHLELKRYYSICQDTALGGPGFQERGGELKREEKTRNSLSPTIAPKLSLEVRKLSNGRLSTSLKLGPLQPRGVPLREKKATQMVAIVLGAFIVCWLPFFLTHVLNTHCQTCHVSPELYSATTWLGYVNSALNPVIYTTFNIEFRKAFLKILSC
Chain of Alpha-1B adrenergic receptor (P35368 whole entry): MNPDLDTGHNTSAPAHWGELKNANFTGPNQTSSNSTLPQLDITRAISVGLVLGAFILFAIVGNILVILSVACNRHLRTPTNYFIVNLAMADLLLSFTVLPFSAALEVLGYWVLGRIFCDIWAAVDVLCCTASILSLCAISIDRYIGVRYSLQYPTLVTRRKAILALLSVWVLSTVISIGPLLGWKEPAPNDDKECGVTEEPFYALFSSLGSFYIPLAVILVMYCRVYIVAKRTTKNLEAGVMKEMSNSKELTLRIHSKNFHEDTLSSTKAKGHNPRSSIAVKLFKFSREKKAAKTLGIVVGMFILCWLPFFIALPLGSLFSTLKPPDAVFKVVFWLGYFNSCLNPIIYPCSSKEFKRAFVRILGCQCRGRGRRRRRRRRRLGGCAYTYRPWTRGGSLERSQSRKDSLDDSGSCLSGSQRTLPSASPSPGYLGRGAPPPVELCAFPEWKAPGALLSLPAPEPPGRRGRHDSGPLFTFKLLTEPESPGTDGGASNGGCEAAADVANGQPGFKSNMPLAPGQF
Chain of Muscarinic acetylcholine receptor M2 (P08172 whole entry): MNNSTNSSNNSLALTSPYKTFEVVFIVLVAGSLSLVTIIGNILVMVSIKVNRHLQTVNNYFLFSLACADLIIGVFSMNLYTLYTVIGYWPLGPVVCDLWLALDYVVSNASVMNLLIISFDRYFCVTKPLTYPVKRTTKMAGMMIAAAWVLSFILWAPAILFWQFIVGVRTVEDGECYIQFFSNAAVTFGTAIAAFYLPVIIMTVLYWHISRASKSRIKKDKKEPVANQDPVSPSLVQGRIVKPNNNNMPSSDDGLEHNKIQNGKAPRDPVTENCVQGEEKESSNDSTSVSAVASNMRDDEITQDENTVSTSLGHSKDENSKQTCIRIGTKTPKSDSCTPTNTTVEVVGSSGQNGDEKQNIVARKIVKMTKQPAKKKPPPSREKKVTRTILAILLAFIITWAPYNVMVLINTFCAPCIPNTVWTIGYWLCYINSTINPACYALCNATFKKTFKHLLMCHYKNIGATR
Chain of Muscarinic acetylcholine receptor M3 (P20309 whole entry, looked up): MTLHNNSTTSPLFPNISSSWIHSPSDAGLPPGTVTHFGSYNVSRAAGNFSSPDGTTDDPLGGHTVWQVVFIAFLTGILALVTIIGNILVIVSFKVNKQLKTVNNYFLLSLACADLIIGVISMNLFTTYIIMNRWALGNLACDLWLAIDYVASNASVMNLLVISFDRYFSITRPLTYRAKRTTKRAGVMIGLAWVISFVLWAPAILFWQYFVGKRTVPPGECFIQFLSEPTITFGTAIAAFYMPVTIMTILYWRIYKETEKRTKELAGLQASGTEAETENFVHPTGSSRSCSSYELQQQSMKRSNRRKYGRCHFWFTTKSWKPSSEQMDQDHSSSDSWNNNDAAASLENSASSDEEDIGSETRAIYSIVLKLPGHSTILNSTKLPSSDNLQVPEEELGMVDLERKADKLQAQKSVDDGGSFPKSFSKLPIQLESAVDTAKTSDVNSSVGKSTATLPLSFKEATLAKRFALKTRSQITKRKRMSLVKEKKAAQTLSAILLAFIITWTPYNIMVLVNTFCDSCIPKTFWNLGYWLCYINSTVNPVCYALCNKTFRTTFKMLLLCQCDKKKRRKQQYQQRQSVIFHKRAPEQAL
Chain of Histamine H3 receptor (Q9Y5N1 whole entry): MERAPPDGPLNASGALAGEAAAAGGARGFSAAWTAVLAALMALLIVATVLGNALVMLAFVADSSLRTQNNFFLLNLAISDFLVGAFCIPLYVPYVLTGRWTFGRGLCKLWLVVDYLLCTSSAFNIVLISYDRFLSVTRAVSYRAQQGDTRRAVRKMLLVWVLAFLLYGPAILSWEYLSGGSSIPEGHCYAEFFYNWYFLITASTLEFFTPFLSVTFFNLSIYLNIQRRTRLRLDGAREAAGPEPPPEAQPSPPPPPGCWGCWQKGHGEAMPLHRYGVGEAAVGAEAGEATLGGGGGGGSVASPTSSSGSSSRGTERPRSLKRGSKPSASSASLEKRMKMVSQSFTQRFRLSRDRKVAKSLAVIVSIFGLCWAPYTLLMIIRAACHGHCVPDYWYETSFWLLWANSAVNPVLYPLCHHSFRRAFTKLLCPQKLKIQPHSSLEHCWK
Chain of Alpha-2A adrenergic receptor (Homo sapiens) (P08913 whole entry): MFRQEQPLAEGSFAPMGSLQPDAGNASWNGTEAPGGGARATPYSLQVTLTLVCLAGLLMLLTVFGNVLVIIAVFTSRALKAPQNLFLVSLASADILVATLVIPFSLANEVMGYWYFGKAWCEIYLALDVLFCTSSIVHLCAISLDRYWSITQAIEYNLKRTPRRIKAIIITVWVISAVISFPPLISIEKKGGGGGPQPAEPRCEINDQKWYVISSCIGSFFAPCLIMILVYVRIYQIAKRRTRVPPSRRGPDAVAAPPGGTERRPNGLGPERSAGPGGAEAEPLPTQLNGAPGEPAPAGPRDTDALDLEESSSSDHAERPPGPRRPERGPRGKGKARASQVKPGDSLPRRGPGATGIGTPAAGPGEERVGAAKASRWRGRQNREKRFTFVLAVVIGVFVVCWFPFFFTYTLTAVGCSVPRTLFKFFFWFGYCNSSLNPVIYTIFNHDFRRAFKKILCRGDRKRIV
Chain of 5-hydroxytryptamine receptor 2C (Homo sapiens) (P28335 whole entry): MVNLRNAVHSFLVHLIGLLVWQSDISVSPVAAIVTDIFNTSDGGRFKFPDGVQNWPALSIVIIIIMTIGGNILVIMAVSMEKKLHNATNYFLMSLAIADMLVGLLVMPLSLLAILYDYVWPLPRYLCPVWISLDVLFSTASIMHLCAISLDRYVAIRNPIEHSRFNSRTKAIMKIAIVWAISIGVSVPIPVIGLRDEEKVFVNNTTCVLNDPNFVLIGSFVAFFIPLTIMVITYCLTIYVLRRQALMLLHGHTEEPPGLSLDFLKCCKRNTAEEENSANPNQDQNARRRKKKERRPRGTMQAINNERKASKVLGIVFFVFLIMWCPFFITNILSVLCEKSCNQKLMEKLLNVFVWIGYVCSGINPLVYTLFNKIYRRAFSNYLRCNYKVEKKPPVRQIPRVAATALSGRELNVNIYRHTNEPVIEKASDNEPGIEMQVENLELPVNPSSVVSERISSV

Broadly, the pKi is the negative decadic logarithm of the Ki, by convention in mol/L. As usually defined, the inhibition is the relative decrease from the control value, in per cent. A low value points to little suppression. Regarding `CN1CC[C@H]2CC(=O)[C@H](Cc3ccccc3)[C@H]3CCC[C@@H]1[C@H]23`, the pKi in [1] is less than 5.00; in [2] it was 6.83; in experiment [3], less than 5.00; in [5] it was less than 5.00; in experiment [6] it was 5.72; in [7], less than 5.00. Besides, the pKi in experiment [9], in [10] and in [11] was less than 5.00 in each case. Also, the inhibition in [4], in [8], in experiment [12], in experiment [13] and in experiment [14] was greater than 50% each time. In addition, the Activity in [15] and in experiment [16] was greater than 50% throughout.
Turning to `CCCN1CC[C@H]2c3cc4ccc(C(F)(F)F)cc4nc3[C@H](CC)[C@H]3CCC[C@@H]1[C@@H]32`, the inhibition in experiment [17], in [19], in [20], in experiment [13], in experiment [21] and in experiment [22] was greater than 50% each time. Further, the Ratio Ki in [18] is 28. Besides, the pKi in experiment [1] is less than 5.00; in [2], 7.82; in [3], less than 5.00; in experiment [5], 5.63; in [6], less than 5.00; in experiment [7], less than 5.00. In addition, the pKi in experiment [9], in experiment [10] and in [11] was less than 5.00 throughout.
